Assay results from US20230295133A1, “PROCESS FOR PREPARING A COMPOUND USEFUL TO TREAT MYCOSES” (PULMOCIDE LIMITED, priority 2014, published 2023).
≈ marks a conversion by molar mass, not a printed value.

Legend:
[1] = tested on: aspergillus fumigatus infection of BEAS2B cells; assay: Aspergillus fumigatus infection of bronchial epithelial cells (GM in supernatant); type: cell-based; details: bronchial epithelial cells infected with Aspergillus fumigatus; read-out: MIC50 Infection of BEAS2B cells
Method: BEAS2B cells were seeded in 96-well plates (100 µL; 30,000 cells / well; Catalogue No 3596, Sigma Aldrich, Dorset, UK) in 10% FBS RPMI-1640 and were then incubated (37° C., 5% CO2) for one day before experimentation. Test compounds (0.5 µL DMSO solution) or vehicle (DMSO) were added to each well to give a final DMSO concentration of 0.5%. BEAS2B cells were incubated with test compounds for 1 hr (35° C., 5% CO2) before infection with aspergillus fumigatus (20 µL; Public Health England) conidia suspension (0.5×10^5 /ml in 10% FBS RPMI-1640). The plate was incubated for 24 hr (35° C., 5% CO2). Supernatant (50 µL) was collected and transferred to a PCR plate (Catalogue No L1402-9700, Starlab, Milton Keynes, UK), which was frozen (-20° C.) until use. After thawing, supernatant (5 µL) was diluted 1:20 by adding R7-PBS solution (95 µL; 1:4 R7 to PBS; Bio-Rad Laboratories, Redmond, WA, USA). GM levels in these samples (50 µL) were measured using Platelia GM-EIA kits (Bio-Rad Laboratories, Redmond, WA, USA). The percentage inhibition for each well was calculated and the IC50 value was calculated from the concentration-response curve generated for each test compound.

[2] = Cell viability: resazurin assay; type: cell-based, human; details: human, BEAS2B cells; n = 3-5
Method: BEAS2B cells were seeded in 384-well plates (100 µL; 3000 / well /; BD Falcon, Catalogue No 353962) in RPMI-LHC8 (RPMI-1640 and LHC8 media combined in equal proportions) one day before experimentation. For cell-free control wells, RPMI-LHC8 (100 µL) was added. Test compounds (0.5 µL of a DMSO solution) were added to give a final DMSO concentration of 0.5% using an Integra VIAFLO 96 (Integra, Zizers, Switzerland). BEAS2B cells were incubated with each test compound for 1 day (37° C. / 5% CO2 in RPMI-LHC8). After addition of resazurin stock solution (5 µL, 0.04%) the plates were incubated for a further 4 hr (37° C. / 5% CO2). The fluorescence of each well at 545 nm (excitation) and 590 nm (emission) was determined using a multi-scanner (Clariostar: BMG Labtech). The percentage loss of cell viability was calculated for each well relative to vehicle (0.5% DMSO) treatment. Where appropriate, a CC50 value was calculated from the concentration-response curve generated from the concentration-response curve for each test compound.

[3] = tested on: Aspergillus fumigatus L98H (TR34/L98H); assay: Broth microdilution assay (modified EUCAST); type: cell-based; details: Aspergillus fumigatus, read-out: MIC75 against Aspergillus fumigatus isolate L98H
Method: (§1) This assay was conducted using a modified method published by EUCAST (Rodriguez-Tudela et al., 2008). Spores of aspergillus fumigatus (NCPF2010, NCPF7010 (Methionine 220 mutation), NCPF7099 (Glycine G54 mutation) from Public Health England, Wiltshire; TR34/L98H mutants from St Louis Hospital, Paris, France) were cultured in Sabouraud dextrose agar for 3 days. A stock spore suspension was prepared from a Sabouraud dextrose agar culture by washing with PBS-tween (10 mL; PBS containing 0.05% Tween-20, 100 U/mL Penicillin and 100 U/mL Streptomycin). The spore count was assessed using a Neubauer haemocytometer and then adjusted to 10^6 spores/mL with PBS. A working suspension of spores (2 × 10^5 spores/mL) was prepared in filter sterilised, BSA MOPS RPMI-1640 (50 mL; RPMI-1640 containing 2 mM L-glutamine, 0.5% BSA, 2% glucose, 0.165 M MOPS, buffered to pH 7 with NaOH). For the assay, BSA MOPS RPMI-1640 (50 µL/well) was added throughout the 384-well plate (Catalogue number 353962, BD Falcon, Oxford, UK) first. Test compounds (0.5 µL DMSO solution) were then added in quadruplicate using an Integra VIAFLO 96 (Integra, Zizers, Switzerland), and mixed well using a plate mixer. Subsequently 50 µL of the working spore suspension prepared above was added to all wells except non-spore control wells. For non-spore control wells, BSA MOPS-RPMI solution (50 µL/well) was added instead. The plate was covered with a plastic lid, and incubated (35° C. with ambient air) for 48 hr. The OD of each well at 530 nm was determined using a multi-scanner (Clariostar: BMG, Buckinghamshire, UK). The percentage inhibition for each well was calculated and the MIC50, MIC75 and MIC90 values were calculated from the concentration-response curve generated for each test compound.

[4] = tested on: Aspergillus fumigatus NCPF2010; assay: Broth microdilution assay (modified EUCAST); type: cell-based; details: Aspergillus fumigatus, NCPF2010, read-out: MIC75 against Aspergillus fumigatus isolate NCPF2010
Method: as §1

[5] = tested on: Aspergillus fumigatus NCPF7099; assay: Broth microdilution assay (modified EUCAST); type: cell-based; details: Aspergillus fumigatus, NCPF7099, n = 3, read-out: MIC75 against Aspergillus fumigatus isolate NCPF7099
Method: as §1

[6] = tested on: Aspergillus fumigatus NCPF7100; assay: Broth microdilution assay (modified EUCAST); type: cell-based; details: Aspergillus fumigatus, NCPF7100, read-out: MIC75 against Aspergillus fumigatus isolate NCPF7100

Compound	MIC50 [1]	CC50 at 1 day [2]	MIC [3]	MIC [4]	MIC [5]	MIC [6]
CNS(=O)(=O)c1ccc(NC(=O)c2ccc(N3CCN(c4ccc(OC[C@@H]5CO[C@@](Cn6cncn6)(c6ccc(F)cc6F)C5)c(C)c4)CC3)cc2)cc1 [Example 20, 4-(4-(4-(((3R, 5R)-5-((1H-1,2,4-triazol-1-yl)methyl)-5-(2,4-difluorophenyl)tetrahydrofuran-3-yl)methoxy)-3-methylphenyl)piperazin-1-yl)-N-(4-(N-methylsulfamoyl)phenyl)benzamide]	0.0361 µM (≈ 0.0274 µg/mL)	> 13.2 µM	0.0461 µM (≈ 0.0349 µg/mL)	0.0188 µM (≈ 0.0142 µg/mL)	0.0111 µM (≈ 0.00841 µg/mL)	0.0146 µM (≈ 0.0111 µg/mL)
Cc1cc(N2CCN(c3ccc(C(=O)Nc4ccc(F)cn4)cc3)CC2)ccc1OC[C@@H]1CO[C@@](Cn2cncn2)(c2ccc(F)cc2F)C1 [Example 6, 4-(4-(4-(((3R,5R)-5-((1H-1,2,4-Triazol-1-yl)Methyl)-5-(2,4-Difluorophenyl)Tetra Hydrofuran-3-yl)Methoxy)-3-Methylphenyl)Piperazin-1-yl)-N-(5-Fluoropyridin-2-yl) Benzamide]	0.0239 µM (≈ 0.0163 µg/mL)	> 14.6 µM	0.131 µM (≈ 0.0896 µg/mL)	0.0125 µM (≈ 0.00855 µg/mL)	0.0212 µM (≈ 0.0145 µg/mL)	0.0214 µM (≈ 0.0146 µg/mL)
Cc1cc(N2CCN(c3ccc(C(=O)Nc4ccc(OC(F)F)cc4)cc3)CC2)ccc1OC[C@@H]1CO[C@@](Cn2cncn2)(c2ccc(F)cc2F)C1 [Example 12, 4-(4-(4-(((3R,5R)-5-((1H-1,2,4-triazol-1-yl)methyl)-5-(2,4-difluorophenyl)tetrahydrofuran-3-yl)methoxy)-3-methylphenyl)piperazin-1-yl)-N-(4-difluoromethoxyphenyl)benzamide]	0.0973 µM (≈ 0.0711 µg/mL)	> 13.7 µM	0.0459 µM (≈ 0.0335 µg/mL)	0.0134 µM (≈ 0.00979 µg/mL)	0.0228 µM (≈ 0.0167 µg/mL)	0.0303 µM (≈ 0.0221 µg/mL)
Cc1cc(N2CCN(c3ccc(C(=O)Nc4cc(F)cc(F)c4)cc3)CC2)ccc1OC[C@@H]1CO[C@@](Cn2cncn2)(c2ccc(F)cc2F)C1 [Example 28, 4-(4-(4-(((3R, 5R)-5-((1H-1,2,4-triazol-1-yl)methyl)-5-(2,4-difluorophenyl)tetrahydrofuran-3-yl)methoxy)3-methylphenyl)piperazin-1-yl)-N-(3,5-difluorophenyl)benzamide]	0.0117 µM (≈ 0.0082 µg/mL)	> 14.3 µM	0.198 µM (≈ 0.139 µg/mL)	0.0319 µM (≈ 0.0224 µg/mL)	0.0266 µM (≈ 0.0186 µg/mL)	0.0361 µM (≈ 0.0253 µg/mL)
NS(=O)(=O)c1ccc(NC(=O)c2ccc(N3CCN(c4ccc(OCC5CO[C@@](Cn6cncn6)(c6ccc(F)cc6F)C5)c(F)c4)CC3)cc2)cc1 (stereo in doubt) [Example 22, 4-(4-(4-(((3R,5R)-5-((1H-1,2,4-triazol-1-yl)methyl)-5-(2,4-difluorophenyl)tetrahydrofuran-3-yl)methoxy)-3-fluorophenyl)piperazin-1-yl)-N-(4-sulfamoylphenyl)benzamide]	0.00477 µM (≈ 0.00357 µg/mL)	> 13.4 µM	> 1.34 µM	0.0113 µM (≈ 0.00845 µg/mL)	0.0164 µM (≈ 0.0123 µg/mL)	0.022 µM (≈ 0.0165 µg/mL)
O=C(Nc1ccc(F)cn1)c1ccc(N2CCN(c3ccc(OCC4CO[C@@](Cn5cncn5)(c5ccc(F)cc5F)C4)c(F)c3)CC2)cc1 (stereo in doubt) [Example 40, 4-(4-(4-(((3R, 5R)-5-((1H-1,2,4-triazol-1-yl)methyl)-5-(2,4-difluorophenyl)tetrahydrofuran-3-yl)methoxy)-3-fluorophenyl)piperazin-1-yl)-N-(5-fluoropyridin-2-yl)benzamide]	0.00687 µM (≈ 0.00472 µg/mL)	> 14.5 µM	0.0731 µM (≈ 0.0503 µg/mL)	0.0125 µM (≈ 0.0086 µg/mL)	0.024 µM (≈ 0.0165 µg/mL)	0.0146 µM (≈ 0.01 µg/mL)
O=C(Nc1ccc(F)cc1)c1ccc(N2CCN(c3ccc(OCC4CO[C@@](Cn5cncn5)(c5ccc(F)cc5F)C4)c(Cl)c3)CC2)cc1 (stereo in doubt) [Example 18, 4-(4-(4-(((3R,5R)-5-((1H-1,2,4-triazol-1-yl)methyl)-5-(2,4-difluorophenyl)tetrahydrofuran-3-yl)methoxy)-3-chlorophenyl)piperazin-1-yl)-N-(4-fluorophenyl)benzamide]	0.0866 µM (≈ 0.0609 µg/mL)	> 14.2 µM	0.0733 µM (≈ 0.0515 µg/mL)	0.0222 µM (≈ 0.0156 µg/mL)	0.011 µM (≈ 0.00773 µg/mL)	0.0471 µM (≈ 0.0331 µg/mL)
